Drawing on patent publication US20240190871A1, “KRASG12D INHIBITOR, PREPARATION METHOD THEREFOR AND APPLICATION THEREOF” (YA THERAPEUTICS INC, priority 2021, published 2024), this text covers IC50 for 22 compounds.

The structures appear in SMILES notation. A value given as a limit tells only on which side of the number the result lay.

For orientation: IC50 means the concentration at which inhibition is half-maximal.

KRAS-G2D/SOS1, sequence (P01116 1-188 isoform P01116-2 G12D): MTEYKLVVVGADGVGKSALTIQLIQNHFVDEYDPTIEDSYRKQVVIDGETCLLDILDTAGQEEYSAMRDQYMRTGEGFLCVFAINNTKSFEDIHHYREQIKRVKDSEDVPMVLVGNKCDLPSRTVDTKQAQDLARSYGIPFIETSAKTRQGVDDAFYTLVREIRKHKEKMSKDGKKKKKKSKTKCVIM

The target of the first assay is KRAS-G2D/SOS1 (Homo sapiens, UniProt P01116, G12D). Nature of the assay: KRAS-G2D/SOS1 binding experiment (HTRF). The settings on record: His-tagged G12D protein and Tag1-SOS protein, room temperature. As to the method:
• A) Dilute Tagged-His Tag G12D protein and Tag1-SOS protein with diluent at 1:100, and use detection buffer for anti-Tag1-Tb3+ antibody and anti-Tag2-XL665 at 1:100 or 1:25, respectively Dilute. • B) Dilute the compound to be tested with diluent starting from […] concentration, 4 times gradient, a total of 6 concentration gradients, and dilute to 10× stock solution. • C) In a 96-well plate, add 4 uL Tagged-His Tag G12D protein, 4 uL Tag1-SOS protein, 2 ul dilution solution (positive control) or test compound (different concentrations of 10× stock solution) to each well in sequence, a total of 10 ul, and incubate at room temperature for […], add pre-mixed 5 uL anti-Tag1-Tb3+ and 5 uL anti-Tag2-xL665, seal the plate, incubate at room temperature for 2 hours, and read the HTRF signal with a TECAN INFINITEF NANO+ microplate reader.
The ratio of […] and donor excitation signals for each single well was calculated using the formula ratio=665 nm signal value/620 nm signal value×[…]. Data were processed using Graphpadprism5 software. IC50 values were calculated by sigmoidal dose-response curve fitting.
In general terms: TR-FRET usually uses a lanthanide donor and a delayed reading to cut background.
`C[C@@H]1CNCCN1c1nc(NCCN(C)C)nc2nc(-c3c(O)cccc3F)c(F)cc12` [Compound 1, 2-(2-((2-(dimethylamino)ethyl)amino)-6-fluoro-4-((R)-2-methylpiperazin-1-yl)pyrido[2,3-d]pyrimidin-7-yl)-3-fluorophenol] gave an IC50 greater than 500 nM.

In the next assay the test system is ATCC CRL-1739 (KRASG^12D mutant) cells. Nature of the assay: Tumor cell proliferation inhibition experiment (Cell Titer-Glo, 72 hours). The format is cell-based. To be noted: 72 hours incubation, 10% fetal bovine serum, ATP content. Here is the method:
The ATCC CRL-1739 (KRASG^12D mutant) cells were digested, centrifuged and resuspended, and the cell density was measured with a Scepter automatic cell counter. The cells were diluted to a solution containing 44,000 cells per milliliter, and the density-adjusted cell solution was 90 per well. Microliters were added to a 96-well culture plate. The 96-well plate was placed in a 37° C., 5% CO2 incubator. After the cells were cultured for 24 hours, different concentrations of the compounds to be tested were added. The cells were incubated with the compounds for 72 hours in the presence of 10% fetal bovine serum. Glo Luminescent Cell Viability Assay Kit (see manufacturer's instructions for details) was used to measure ATP content to assess cell growth inhibition. Briefly, 30 μl of Cell Titer-Glo reagent was added to each well, and the plate was shaken for 10 minutes to induce cell lysis. FluoroskanAscentFL (Thermo) assay records the […], and the maximum signal value is obtained from cells treated with DMSO for 72 hours. The minimum signal value was obtained from the medium alone (the number of cells was zero), and the % inhibition rate=(the maximum signal value compound signal value)/(the maximum signal value−the minimum signal value×100%, and the data were processed using Graphpadprism 5 software. By sigmoid Dose-response curve fitting to calculate IC50 value. “A” means IC50≤50 nM; “B” means 50<IC50≤500 nM; “C” means 500<IC50≤2000 nM; “D” means 2000<IC50
A general note: Cellular ATP, detected with luciferase, serves as a proxy for viable cell number.
`C[C@@H]1CNCCN1c1nc(NCCN(C)C)nc2nc(-c3c(O)cccc3F)c(F)cc12` [Compound 1, 2-(2-((2-(dimethylamino)ethyl)amino)-6-fluoro-4-((R)-2-methylpiperazin-1-yl)pyrido[2,3-d]pyrimidin-7-yl)-3-fluorophenol] showed an IC50 greater than 2000 nM.
The compound `C[C@@H]1CNCCN1c1nc(OCCN(C)C)nc2nc(-c3c(O)cccc3F)c(F)cc12` [Compound 2, 2-(2-(2-(dimethylamino)ethoxy)-6-fluoro-4-((R)-2-methylpiperazin-1-yl)pyrido[2,3-d]pyrimidin-7-yl)-3-fluorophenol] came in with an IC50 greater than 2000 nM.
In turn, `C[C@@H]1CNCCN1c1nc(OC[C@@H]2CCCN2C)nc2nc(-c3ccccc3Cl)c(F)cc12` [Compound 32, 7-(2-chlorophenyl)-6-fluoro-4-((R)-2-methylpiperazin-1-yl)-2-(((S)-1-methylpyrrolidin-2-yl)methoxy)pyrido [2,3-d]pyrimidine] came in with a half-inhibitory concentration (IC50) greater than 2000 nM.
On the same count and under the same terms, under `C[C@@H]1CNCCN1c1nc(OC[C@@H]2CCCN2C)nc2nc(-c3cccc4ccccc34)c(F)cc12` [Compound 35, 6-fluoro-4-((R)-2-methylpiperazin-1-yl)-2-(((S)-1-methylpyrrolidin-2-yl)methoxy)-7-(naphthalen-1-yl)pyrido[2,3-d]pyrimidine] stands greater than 2000 nM; under `C[C@@H]1CNCCN1c1nc(OC[C@@H]2CCCN2C)nc2nc(-c3ccc4ccccc4c3)c(F)cc12` [Compound 37, 6-fluoro-4-((R)-2-methylpiperazin-1-y1)-2-(((S)-1-methylpyrrolidin-2-yl)methoxy)-7-(naphthalen-2-yl)pyrido[2,3-d]pyrimidine], greater than 2000 nM.
Regarding `C[C@@H]1CNCCN1c1nc(OC[C@@H]2CCCN2C)nc2nc(-c3cccc4ccsc34)c(F)cc12` [Compound 38, 7-(benzo[b]thiophen-7-yl)-6-fluoro-4-((R)-2-methylpiperazin-1-y1)-2-(((S)-1-methylpyrrolidin-2-yl)methoxy)pyrido [2,3-d]pyrimidine], the IC50 is greater than 2000 nM.
Regarding `C[C@@H]1CNCCN1c1nc(OC[C@@H]2CCCN2C)nc2nc(-c3cccc4cccnc34)c(F)cc12` [Compound 39, 6-fluoro-4-((R)-2-methylpiperazin-1-yl)-2-(((S)-1-methylpyrrolidin-2-yl)methoxy)-7-(quinolin-8-yl)pyrido[2,3-d]pyrimidine], the IC50 was greater than 2000 nM.
Compound `C[C@@H]1CNCCN1c1nc(OC[C@@H]2CCCN2C)nc2nc(-c3cccc4ccoc34)c(F)cc12` [Compound 40, 7-(benzofuran-7-yl)-6-fluoro-4-((R)-2-methylpiperazin-1-yl)-2-(((S)-1-methylpyrrolidin-2-yl)methoxy)pyrido [2,3-d]pyrimidine] had an IC50 greater than 2000 nM.
For the compound `C[C@@H]1CNCCN1c1nc(OC[C@@H]2CCCN2C)nc2nc(-c3cccc4c3ccn4C)c(F)cc12` [Compound 41, 6-fluoro-7-(1-methyl-1H-indol-4-yl)-4-((R)-2-methylpiperazin-1-yl)-2-(((S)-1-methylpyrrolidin-2-yl)methoxy)pyrido [2,3-d]pyrimidine], the 50% inhibitory concentration (IC50) was greater than 2000 nM.
Compound `C[C@@H]1CNCCN1c1nc(OC[C@@H]2CCCN2C)nc2nc(-c3cccc4c3cnn4C)c(F)cc12` [Compound 42, 6-fluoro-7-(1-methyl-1H-indazol-4-yl)-4-((R)-2-methylpiperazin-1-yl)-2-(((S)-1-methylpyrrolidin-2-yl)methoxy)pyrido [2,3-d]pyrimidine] registered an IC50 greater than 2000 nM.
In turn, `C[C@@H]1CNCCN1c1nc(OC[C@@H]2CCCN2C)nc2nc(-c3cccc4ccncc34)c(F)cc12` [Compound 43, 6-fluoro-7-(isoquinolin-8-y1)-4-((R)-2-methylpiperazin-1-y1)-2-(((S)-1-methylpyrrolidin-2-yl)methoxy)pyrido [2,3-d]pyrimidine] showed an IC50 of 500 to 2000 nM.
The compound `C[C@@H]1CNCCN1c1nc(OC[C@@H]2CCCN2C)nc2nc(-c3cccc4ncccc34)c(F)cc12` [Compound 44, 6-fluoro-4-((R)-2-methylpiperazin-1-y1)-2-(((S)-1-methylpyrrolidin-2-yl)methoxy)-7-(quinolin-5-yl)pyrido[2,3-d]pyrimidine] came in with an IC50 of 500 to 2000 nM.
`CN1CCC[C@H]1COc1nc(N2C3CNCC2C3)c2cc(F)c(-c3cc(O)cc4cccc(Cl)c34)nc2n1` [Compound 47, 4-(4-(3,6-diazabicyclo[3.1.1]heptan-6-yl)-6-fluoro-2-(((S)-1-methylpyrrolidin-2-yl)methoxy)pyrido [2,3-d]pyrimidin-7-yl)-5-chloronaphthalen-2-ol] came in with a half-inhibitory concentration (IC50) of 50 to 500 nM.
For `CN1CCC[C@H]1COc1nc(N2C3CNCC2C3)c2cc(F)c(-c3cc(O)cc4cccc(F)c34)nc2n1` [Compound 48, 4-(4-(3,6-diazabicyclo[3.1.1]heptan-6-yl)-6-fluoro-2-(((S)-1-methylpyrrolidin-2-yl)methoxy)pyrido [2,3-d]pyrimidin-7-yl)-5-fluoronaphthalen-2-ol], the IC50 is no more than 50 nM.
Still for that read-out and setting: under `CN1C[C@H](F)C[C@H]1COc1nc(N2C3CNCC2C3)c2cc(F)c(-c3cc(O)cc4cccc(F)c34)nc2n1` [Compound 49, 4-(4-(3,6-diazabicyclo[3.1.1]heptan-6-yl)-6-fluoro-2-(((2S,4R)-4-fluoro-1-methylpyrrolidin-2-yl)methoxy)pyrido [2,3-d]pyrimidin-7-y1)-5-fluoronaphthalen-2-ol] stands 500 to 2000 nM; under `Oc1cc(-c2nc3nc(OC[C@@H]4C[C@@H](F)CN4C4CC4)nc(N4C5CNCC4C5)c3cc2F)c2c(F)cccc2c1` [Compound 50, 4-(4-(3,6-diazabicyclo[3.1.1]heptan-6-yl)-2-(((2S,4R)-1-cyclopropyl-4-fluoropyrrolidin-2-yl)methoxy)-6-fluoropyrido[2,3-d]pyrimidin-7-yl)-5-fluoronaphthalen-2-ol], 500 to 2000 nM; under `Oc1cc(-c2nc3nc(OCC4(CN5CCCC5)CC4)nc(N4C5CNCC4C5)c3cc2F)c2c(F)cccc2c1` [Compound 51, 4-(4-(3,6-diazabicyclo[3.1.1]heptan-6-yl)-6-fluoro-2-((1-(pyrrolidin-1-ylmethyl)cyclopropyl)methoxy)pyrido[2,3-d]pyrimidin-7-yl)-5-fluoronaphthalen-2-ol], 50 to 500 nM.
`Oc1cc(-c2nc3nc(OCC4(CN5CC[C@@H](F)C5)CC4)nc(N4C5CNCC4C5)c3cc2F)c2c(F)cccc2c1` [Compound 52, 4-(4-(3,6-diazabicyclo[3.1.1]heptan-6-yl)-6-fluoro-2-((1-(((R)-3-fluoropyrrolidin-1-yl)methyl)cyclopropyl)methoxy)pyrido[2,3-d]pyrimidin-7-yl)-5-fluoronaphthalen-2-ol] came in with an IC50 of 50 to 500 nM.
The compound `Oc1cc(-c2nc3nc(OC[C@@]45CCCN4C[C@H](F)C5)nc(N4C5CNCC4C5)c3cc2F)c2c(Cl)cccc2c1` [Compound 53, 4-(4-(3,6-diazabicyclo[3.1.1]heptan-6-yl)-6-fluoro-2-(((2R,7aS)-2-fluorohexahydro-1H-pyrrolizin-7a-yl)methoxy)pyrido[2,3-d]pyrimidin-7-yl)-5-chloronaphthalen-2-ol] yielded an IC50 of no more than 50 nM.
In the case of `Oc1cc(-c2nc3nc(OC[C@@]45CCCN4C[C@H](F)C5)nc(N4C[C@H]5CC[C@@H](C4)N5)c3cc2F)c2c(Cl)cccc2c1` [Compound 55, 4-(4-((1R,5S)-3,8-diazabicyclo [3.2.1]octan-3-yl)-6-fluoro-2-(((2R,7aS)-2-fluorohexahydro-1H-pyrrolizin-7a-yl)methoxy)pyrido[2,3-d]pyrimidin-7-yl)-5-chloronaphthalen-2-ol], the half-inhibitory concentration (IC50) was no more than 50 nM.
Turning to `Oc1cc(-c2nc3nc(OC[C@@]45CCCN4CC(F)C5)nc(N4CC5CCC(C4)N5)c3cc2F)c2c(F)cccc2c1` (stereo partly drawn) [Compound 56, 4-(4-((1R,5S)-3,8-diazabicyclo [3.2.1]octan-3-yl)-6-fluoro-2-(((2R,7aS)-2-fluorohexahydro-1H-pyrrolizin-7a-yl)methoxy)pyrido[2,3-d]pyrimidin-7-y1)-5-fluoronaphthalen-2-ol], the IC50 was no more than 50 nM.
`CCc1c(F)ccc2cc(O)cc(-c3nc4nc(OC[C@@]56CCCN5C[C@H](F)C6)nc(N5C[C@H]6CC[C@@H](C5)N6)c4cc3F)c12` [Compound 59, 4-(4-((1R,5S)-3,8-diazabicyclo[3.2.1]octan-3-yl)-6-fluoro-2-(((2R,7aS)-2-fluorotetrahydro-1H-pyrrolizin-7a(5H)-yl)methoxy)pyrido[2,3-d]pyrimidin-7-yl)-5-ethyl-6-fluoronaphthalen-2-ol] gave an IC50 of no more than 50 nM.
